Experimental findings from ChEMBL document CHEMBL1201862, “PubChem BioAssay data set” (2004) are described below.

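Grown in 96-well plates, cells were treated for 48 hours with each compound at five concentrations. Insufficient inhibition: endpoint recorded as highest concentration tested. The concentration for 50% growth inhibition is given as GI50.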 Activity calls are given as the source filed them. Rule as the data show it: active = GI50 up to about 1.1 µM and inactive = higher.

Among the test systems are RPMI-8226; OVCAR-3; Hs-578T; IGROV-1; UACC-257; SF-295; UACC-62; HCT-116; NCI-H23; SK-OV-3; UO-31; HT-29; SK-MEL-2; OVCAR-4; SF-539; MOLT-4; DU-145; SW-620; CAKI-1.
What all share (experiment): inhibition of tumour cell growth, NCI panel, 48 h

As for `CCc1ccc2c(c1)CC1(C2)Cc2cc3c(cc2C1)C(=O)CC3` (configuration not stated), the GI50 with RPMI-8226 is 18.5 µM (inactive); in the experiment with OVCAR-3, 17.3 µM (inactive); in the experiment on Hs-578T, > 100 µM (inactive); in the experiment with IGROV-1 it was 17.3 µM (inactive); in the experiment with UACC-257, 8.39 µM (inactive); in the experiment on SF-295, 19.1 µM (inactive). Further, the GI50 is > 100 µM (inactive) in the experiment with UACC-62; 12.1 µM (inactive) in the experiment on HCT-116; 22.9 µM (inactive) in the experiment on NCI-H23; 25.1 µM (inactive) in the experiment with SK-OV-3; 43.9 µM (inactive) with UO-31; 6.31 µM (inactive) with HT-29. The GI50 is 4.26 µM (inactive) with SK-MEL-2, 15 µM (inactive) in the experiment on OVCAR-4 and 18 µM (inactive) in the experiment with SF-539.

In the case of `CN1CC[C@@]2(c3cccc(O)c3)CC(=O)/C(=C/c3ccc(Cl)c(Cl)c3)[C@H]1C2`, the GI50 with RPMI-8226 is 1.15 µM (inactive); in the experiment on OVCAR-3, 2.23 µM (inactive); in the experiment on Hs-578T, 2.51 µM (inactive); in the experiment with IGROV-1 it was 2.23 µM (inactive); in the experiment on UACC-257 it was 3.41 µM (inactive); in the experiment with MOLT-4 it was 3.15 µM (inactive). Further, the GI50 in the experiment with SF-295 was 2.03 µM (inactive); in the experiment on DU-145 it was 5.04 µM (inactive); in the experiment with NCI-H23 it was 3.4 µM (inactive); in the experiment with SW-620, 1.68 µM (inactive); in the experiment on UO-31 it was 2.07 µM (inactive); in the experiment on HT-29, 1.42 µM (inactive). The GI50 in the experiment on OVCAR-4 is 4.59 µM (inactive).

Take `Cc1c(C#N)c(N)n(C2OC(CO)C(O)C(O)C2O)c(=S)c1C#N` (configuration not stated): the GI50 in the experiment on RPMI-8226, in the experiment with OVCAR-3, in the experiment on Hs-578T, with IGROV-1, with UACC-257 and in the experiment on MOLT-4 was > 100 µM (inactive) in each case. Besides, the GI50 in the experiment on SF-295, in the experiment with DU-145, in the experiment with UACC-62, in the experiment with HCT-116, with NCI-H23 and in the experiment with SW-620 was > 100 µM (inactive) each time. The GI50 in the experiment with SK-OV-3 is 6.47 µM (inactive); in the experiment with UO-31, > 100 µM (inactive); with HT-29 it was > 100 µM (inactive); in the experiment with OVCAR-4, > 100 µM (inactive); in the experiment with SF-539, > 100 µM (inactive).

Regarding `CCOC(=O)CCc1c(C(=O)OCC)[nH]c(/C=C2\NC(=O)C(C)=C2CC)c1C`, the GI50 with RPMI-8226 was > 100 µM (inactive); in the experiment on OVCAR-3 it was 18.5 µM (inactive); in the experiment on CAKI-1 it was 24.3 µM (inactive); with IGROV-1, 4.59 µM (inactive); with MOLT-4, > 100 µM (inactive); in the experiment with SF-295 it was 17.8 µM (inactive). The GI50 was 19.3 µM (inactive) in the experiment with DU-145; 19.2 µM (inactive) with UACC-62; 33.7 µM (inactive) in the experiment with HCT-116; 22 µM (inactive) in the experiment with SK-OV-3; 44 µM (inactive) with UO-31; 50.7 µM (inactive) with HT-29. Besides, the GI50 with SK-MEL-2 was 18.1 µM (inactive); with OVCAR-4, 20.4 µM (inactive); in the experiment on SF-539, 27.9 µM (inactive).

Take `c1cnc2c(c1)-n1cccc1C1(CCCCC1)NN2`: the GI50 in the experiment on RPMI-8226 was 47.9 µM (inactive); in the experiment with OVCAR-3 it was 86.3 µM (inactive); in the experiment with CAKI-1, 60 µM (inactive); in the experiment on UACC-257, 48.4 µM (inactive); with MOLT-4 it was 24.5 µM (inactive); with SF-295, 69.2 µM (inactive). Further, the GI50 was 59.8 µM (inactive) in the experiment on HCT-116; > 100 µM (inactive) with SW-620; 26.9 µM (inactive) in the experiment with UO-31; > 100 µM (inactive) in the experiment with HT-29; > 100 µM (inactive) with SK-MEL-2; > 100 µM (inactive) in the experiment on OVCAR-4. Besides, in the experiment on SF-539, the GI50 is > 100 µM (inactive).

Consider `CCn1c2ccccc2c2cc(NC(=O)c3c(C)nc(O)nc3NCCNCCO)ccc21`, for which the GI50 in the experiment on OVCAR-3, in the experiment on CAKI-1, in the experiment on Hs-578T, in the experiment with IGROV-1, in the experiment with UACC-257 and in the experiment with MOLT-4 was > 100 µM (inactive) each time. Further, the GI50 in the experiment on SF-295, in the experiment with DU-145, in the experiment on UACC-62, with HCT-116, in the experiment with NCI-H23 and in the experiment on SW-620 was > 100 µM (inactive) throughout. Further, the GI50 in the experiment on SK-OV-3, in the experiment with UO-31, in the experiment with HT-29, with OVCAR-4 and in the experiment on SF-539 was > 100 µM (inactive) each time.

On to `CN1c2ccccc2S(=O)(=O)n2c(CCc3ccccc3)nnc21`, for which the GI50 was > 100 µM (inactive) in the experiment on OVCAR-3; 44.1 µM (inactive) in the experiment on CAKI-1; 79.4 µM (inactive) with Hs-578T; > 100 µM (inactive) in the experiment with IGROV-1; > 100 µM (inactive) in the experiment with UACC-257; > 100 µM (inactive) with MOLT-4. Further, the GI50 is 56.2 µM (inactive) with SF-295; > 100 µM (inactive) with DU-145; > 100 µM (inactive) in the experiment on UACC-62; > 100 µM (inactive) in the experiment with HCT-116; > 100 µM (inactive) in the experiment with NCI-H23; > 100 µM (inactive) in the experiment on SW-620. Also, the GI50 with SK-OV-3 is > 100 µM (inactive); in the experiment on UO-31, > 100 µM (inactive); with HT-29, > 100 µM (inactive); with SK-MEL-2, > 100 µM (inactive); in the experiment on OVCAR-4 it was 82 µM (inactive); in the experiment on SF-539, > 100 µM (inactive).

`O=C(N/N=C/c1ccccc1O)c1ccccc1Nc1ccccc1C(=O)N/N=C/c1ccccc1O`: the GI50 in the experiment on OVCAR-3 was 0.0546 µM (active); in the experiment on CAKI-1 it was 0.617 µM (active); in the experiment on IGROV-1, 0.458 µM (active); in the experiment with UACC-257, 2.97 µM (inactive); in the experiment on MOLT-4, 0.102 µM (active); with SF-295, 0.975 µM (active). Besides, the GI50 in the experiment on DU-145 was 2.25 µM (inactive); in the experiment with UACC-62, 1.05 µM (active); in the experiment on HCT-116, 0.198 µM (active); with NCI-H23 it was 1.84 µM (inactive); with SK-OV-3 it was 3.1 µM (inactive); with UO-31 it was 0.411 µM (active). The GI50 was 0.518 µM (active) with HT-29, 0.375 µM (active) in the experiment on OVCAR-4 and 2.19 µM (inactive) in the experiment with SF-539.

Consider `N#Cc1nc(NC(=O)c2ccccc2)sc1N`, for which the GI50 in the experiment with RPMI-8226 was 9.82 µM (inactive); in the experiment with OVCAR-3, > 10 µM (inactive); with CAKI-1, > 10 µM (inactive); with IGROV-1 it was > 10 µM (inactive); with UACC-257, > 10 µM (inactive); in the experiment with MOLT-4, 3.27 µM (inactive). The GI50 in the experiment with SF-295, in the experiment on DU-145, in the experiment with UACC-62, in the experiment on HCT-116, in the experiment with NCI-H23 and with SW-620 was > 10 µM (inactive) each time. Moreover, the GI50 was > 10 µM (inactive) with SK-OV-3; > 10 µM (inactive) in the experiment with UO-31; > 10 µM (inactive) with HT-29; > 10 µM (inactive) with SK-MEL-2; > 6.07 µM (inactive) in the experiment with OVCAR-4; > 10 µM (inactive) with SF-539.

For `CCOP(=O)(OCC)C(C(=O)OC)C(=O)C(=O)Nc1cccc(O)c1` (configuration not stated), the GI50 in the experiment with OVCAR-3, in the experiment with CAKI-1, with Hs-578T, in the experiment on IGROV-1, in the experiment on UACC-257 and in the experiment on MOLT-4 was > 100 µM (inactive) each time. Also, the GI50 with SF-295, with DU-145, with UACC-62, with HCT-116, in the experiment on NCI-H23 and in the experiment on SW-620 was > 100 µM (inactive) in each case. Besides, the GI50 in the experiment on SK-OV-3, in the experiment on UO-31, in the experiment on HT-29, in the experiment with SK-MEL-2, in the experiment with OVCAR-4 and with SF-539 was > 100 µM (inactive) each time.

Consider `COc1ccc(NC(=S)NC(=O)c2ccc3c(c2)Sc2ccccc2O3)c([N+](=O)[O-])c1`, for which the GI50 was 22.6 µM (inactive) in the experiment on OVCAR-3; 39.1 µM (inactive) with CAKI-1; 14 µM (inactive) in the experiment with Hs-578T; 18.7 µM (inactive) in the experiment on IGROV-1; 33.1 µM (inactive) in the experiment with UACC-257; 34.4 µM (inactive) in the experiment on MOLT-4. The GI50 is 92 µM (inactive) with SF-295; 26.9 µM (inactive) with DU-145; 30.3 µM (inactive) with UACC-62; 28.9 µM (inactive) in the experiment on HCT-116; 83.2 µM (inactive) with NCI-H23; 0.387 µM (active) with SW-620. Moreover, the GI50 with SK-OV-3 is 29.9 µM (inactive); in the experiment on UO-31, 25.6 µM (inactive); with HT-29 it was 76.6 µM (inactive); in the experiment with SK-MEL-2, 28.6 µM (inactive); in the experiment with OVCAR-4, 14.9 µM (inactive); in the experiment with SF-539, 24.9 µM (inactive).

Consider `O=C1/C(=C(\Nc2ccccc2)c2ccccc2)C=NN1c1ccccc1`, for which the GI50 with RPMI-8226 was 40.8 µM (inactive); in the experiment on CAKI-1 it was > 100 µM (inactive); in the experiment with IGROV-1 it was > 100 µM (inactive); with UACC-257, > 100 µM (inactive); in the experiment on MOLT-4, 29.3 µM (inactive); in the experiment with SF-295, > 100 µM (inactive). The GI50 in the experiment with UACC-62 was > 100 µM (inactive); in the experiment on NCI-H23, 56.8 µM (inactive); in the experiment on SW-620, > 100 µM (inactive); in the experiment on SK-OV-3 it was > 100 µM (inactive); in the experiment on UO-31, > 100 µM (inactive); in the experiment on HT-29, 47.9 µM (inactive). The GI50 in the experiment with SK-MEL-2 was > 100 µM (inactive); in the experiment on OVCAR-4 it was 76.9 µM (inactive); in the experiment on SF-539, > 100 µM (inactive).
